The target of data set [1] is T1, 5-hydroxytryptamine receptor 1A (Homo sapiens, UniProt P08908).
T1 sequence (P08908 whole entry): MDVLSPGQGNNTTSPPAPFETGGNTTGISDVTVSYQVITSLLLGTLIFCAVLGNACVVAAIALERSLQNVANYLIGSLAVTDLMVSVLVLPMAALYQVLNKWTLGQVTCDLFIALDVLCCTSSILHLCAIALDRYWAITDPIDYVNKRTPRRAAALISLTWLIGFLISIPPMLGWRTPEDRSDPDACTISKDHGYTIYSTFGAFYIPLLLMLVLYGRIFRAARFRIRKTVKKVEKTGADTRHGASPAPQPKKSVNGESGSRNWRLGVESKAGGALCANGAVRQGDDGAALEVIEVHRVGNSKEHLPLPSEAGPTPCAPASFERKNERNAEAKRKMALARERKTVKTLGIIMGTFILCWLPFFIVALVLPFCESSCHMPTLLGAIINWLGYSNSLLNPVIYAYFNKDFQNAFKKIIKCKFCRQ
Briefly: Displacement of [3H]8-OH-DPAT from human 5HT1A receptor expressed in HEK293 cell membranes measured after 120 mins. For orientation: In a radioligand displacement assay an active substance lowers the binding of a labelled ligand.

In data set [2] the target is T2, 5-hydroxytryptamine receptor 2A (Homo sapiens, UniProt P28223). The data set can be described thus: Displacement of [3H]ketanserin from human 5HT2A receptor expressed in HEK293 cell membranes at 10 uM measured after 30 mins relative to control.
The target of data set [3] is T3, D(2) dopamine receptor (Homo sapiens, UniProt P14416). The data set can be described thus: Displacement of [3H]Spiperone from human D2S receptor expressed in CHOK1 cell membranes measured after 120 mins.
Data set [4] concerns the target T4, 5-hydroxytryptamine receptor 1A (Homo sapiens) (UniProt P08908).
T4 sequence (whole entry): T1 sequence (P08908 whole entry)
The data set can be described thus: Agonist activity at human 5HT1A receptor expressed in HEK293 cell membranes assessed as maximal inhibition of forskolin induced cAMP production incubated for 24 hrs followed by forskolin addition by HTRF assay relative to control. Type of data set: functional, cell-based.

For data set [5], the target named is T3, D(2) dopamine receptor. The data set can be described thus: Displacement of [3H]Spiperone from human D2S receptor expressed in CHO cell membranes.
Data set [6] concerns the target T1, 5-hydroxytryptamine receptor 1A. Briefly: Displacement of [3H]8-OH-DPAT from human 5HT1A receptor expressed in HEK293 cell membranes.
Data set [7] has as its target D(3) dopamine receptor (Homo sapiens, UniProt P35462). The data set can be described thus: Displacement of [3H]Spiperone from human D3 receptor expressed in commercial cell membranes.
Data set [8] has as its target D(1A) dopamine receptor (Homo sapiens, UniProt P21728). The data set can be described thus: Displacement of [3H]SCH23390 from human D1 receptor expressed in commercial cell membranes.
Data set [9] concerns the target T2, 5-hydroxytryptamine receptor 2A. Briefly: Displacement of [3H]ketanserin from human 5HT2A receptor expressed in CHO cell membranes.
Data set [10] has as its target T3, D(2) dopamine receptor. Briefly: Agonist activity at human D2 receptor expressed in CHOK1 cells assessed as inhibition of forskolin induced cAMP production at 0.1 nM to 100 uM incubated for 10 mins followed by forskolin addition and measured after 5 mins by HTRF assay. The class given is functional, cell-based. (In general: Changes in cAMP serve as a functional read-out for many G protein-coupled receptors.)

For data set [11], the target named is T2, 5-hydroxytryptamine receptor 2A. The data set can be described thus: Displacement of [3H]ketanserin from human 5HT2A receptor expressed in HEK293 cell membranes measured after 30 mins. The class given is cell-based.
In data set [12] the target is T3, D(2) dopamine receptor. The data set can be described thus: Antagonist activity at human D2S receptor expressed in CHOK1 cells assessed as suppression of dopamine-induced inhibition of forskolin-stimulated cAMP accumulation preincubated for 5 mins followed by dopamine and forskolin addition and measured after 10 mins by HTRF assay. Type of data set: functional, cell-based.

Data set [13] is filed under the species Homo sapiens. The data set can be described thus: Selectivity ratio of Kb for human 5HT2A receptor expressed in CHOK1 cells to Kb for human D2S receptor expressed in CHOK1 cells. The class given is cell-based.
The target of data set [14] is T3, D(2) dopamine receptor. Briefly: Competitive antagonist activity at human D2S receptor expressed in CHOK1 cells assessed as quinpirole mediated inhibition of forskolin induced cAMP accumulation by measuring parallel rightward shifts of quinpirole concentration-response curves incubated for 10 mins by HTRF assay based Schild plot analysis. Type of data set: functional, cell-based.

The target in data set [15] is T2, 5-hydroxytryptamine receptor 2A. The class given is functional, cell-based.
Description: Antagonist activity at human 5HT2A receptor expressed in CHOK1 cells assessed as inhibition of 5-HT induced inositol phosphate production incubated for 24 hrs followed by 5-HT addition by HTRF assay
The target is the same in data set [16]. Briefly: Antagonist activity at human 5HT2A receptor expressed in CHOK1 cells assessed as inhibition of inositol phosphate production incubated for 24 hrs followed by 5-HT addition by Cheng-Prusoff equation analysis. Type of data set: functional, cell-based.
Data set [17] addresses T3, D(2) dopamine receptor. Briefly: Displacement of [3H]Spiperone from human D2S receptor expressed in CHOK1 cell membranes at 10 uM measured after 120 mins relative to control.
Data set [18] has as its system Mus musculus. Briefly: Cognition enhancing effect in Swiss mouse assessed as increase in latency index at 50 mg/kg, ip as acute administration measured after 24 hrs by passive avoidance test. The class given is functional, organism-based.
Data set [19] has as its system Mus musculus. Briefly: Antipsychotic activity in Swiss mouse assessed as decrease in amphetamine-induced hyperlocomotion at 50 mg/kg, ip pretreated for 60 mins followed by amphetamine administration and measured for 30 mins. Type of data set: functional, organism-based.
Data set [20] has as its system Mus musculus. Briefly: Antidepressant activity in Swiss mouse assessed as increase in latency time at 50 mg/kg, ip as acute administration measured during last 4 mins for 6 mins by forced swim test. The class given is functional, organism-based.
The test system of data set [21] is Mus musculus. Briefly: Antidepressant activity in Swiss mouse assessed as decrease in immobility time at 50 mg/kg, ip as acute administration measured during last 4 mins for 6 mins by forced swim test. Type of data set: functional, organism-based.
Data set [22] in a line: Toxicity in Swiss mouse assessed as induction of motor coordination impairments at 50 mg/kg, ip measured after 60 mins by chimney test. The class given is organism-based. To be noted: in vivo, 1 h.

Calls of active or inactive are those of the source. No cut-off for these calls is given here.

T2 sequence (P28223 whole entry): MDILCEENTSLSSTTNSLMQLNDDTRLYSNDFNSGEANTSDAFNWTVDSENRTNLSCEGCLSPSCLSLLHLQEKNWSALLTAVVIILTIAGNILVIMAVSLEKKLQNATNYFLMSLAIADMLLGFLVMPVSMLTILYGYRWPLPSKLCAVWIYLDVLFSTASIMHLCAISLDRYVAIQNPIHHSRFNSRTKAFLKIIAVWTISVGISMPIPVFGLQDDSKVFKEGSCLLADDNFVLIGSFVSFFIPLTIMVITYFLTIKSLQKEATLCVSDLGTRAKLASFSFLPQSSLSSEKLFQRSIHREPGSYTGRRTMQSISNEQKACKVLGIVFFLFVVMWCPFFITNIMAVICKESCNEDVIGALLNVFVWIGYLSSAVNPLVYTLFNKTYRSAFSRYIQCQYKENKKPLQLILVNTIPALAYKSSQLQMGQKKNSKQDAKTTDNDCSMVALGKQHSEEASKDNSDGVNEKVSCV
T3 sequence (P14416 whole entry): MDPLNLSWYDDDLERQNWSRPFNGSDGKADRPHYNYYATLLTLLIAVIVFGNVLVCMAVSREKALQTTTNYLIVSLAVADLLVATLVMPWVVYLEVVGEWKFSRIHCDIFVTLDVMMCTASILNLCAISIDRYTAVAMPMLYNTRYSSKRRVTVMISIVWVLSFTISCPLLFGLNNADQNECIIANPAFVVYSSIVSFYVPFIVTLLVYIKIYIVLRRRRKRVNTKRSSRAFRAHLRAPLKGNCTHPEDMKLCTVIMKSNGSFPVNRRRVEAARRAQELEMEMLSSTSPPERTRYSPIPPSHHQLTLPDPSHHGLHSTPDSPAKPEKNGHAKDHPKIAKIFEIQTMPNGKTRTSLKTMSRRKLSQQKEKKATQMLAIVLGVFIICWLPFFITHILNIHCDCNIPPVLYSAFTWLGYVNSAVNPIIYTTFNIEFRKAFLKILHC
Sequence of D(3) dopamine receptor (P35462 whole entry): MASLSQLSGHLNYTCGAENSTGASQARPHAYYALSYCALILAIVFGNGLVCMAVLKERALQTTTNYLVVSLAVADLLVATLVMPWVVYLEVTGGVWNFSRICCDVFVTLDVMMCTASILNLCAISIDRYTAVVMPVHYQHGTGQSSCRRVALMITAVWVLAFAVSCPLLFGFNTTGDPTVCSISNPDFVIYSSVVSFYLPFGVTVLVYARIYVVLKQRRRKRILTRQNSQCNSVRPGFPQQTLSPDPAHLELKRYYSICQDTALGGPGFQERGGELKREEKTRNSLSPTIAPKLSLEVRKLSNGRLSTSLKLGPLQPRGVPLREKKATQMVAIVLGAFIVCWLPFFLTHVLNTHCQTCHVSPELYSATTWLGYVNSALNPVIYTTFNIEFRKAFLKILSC
Sequence of D(1A) dopamine receptor (P21728 whole entry): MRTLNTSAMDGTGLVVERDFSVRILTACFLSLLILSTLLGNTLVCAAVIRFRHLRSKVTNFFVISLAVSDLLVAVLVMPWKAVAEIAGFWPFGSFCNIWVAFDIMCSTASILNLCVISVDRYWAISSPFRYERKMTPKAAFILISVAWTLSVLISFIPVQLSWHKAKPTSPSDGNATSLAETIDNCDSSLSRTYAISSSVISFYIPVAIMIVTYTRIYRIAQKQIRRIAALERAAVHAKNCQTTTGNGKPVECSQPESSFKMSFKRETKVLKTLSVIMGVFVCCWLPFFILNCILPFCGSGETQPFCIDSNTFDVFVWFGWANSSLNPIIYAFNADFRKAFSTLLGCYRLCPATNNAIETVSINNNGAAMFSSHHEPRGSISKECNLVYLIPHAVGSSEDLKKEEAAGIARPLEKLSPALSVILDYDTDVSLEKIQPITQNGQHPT

By Ki is commonly meant the equilibrium dissociation constant of an inhibitor or competing ligand from its target. Low readings indicate higher affinity, high ones lower affinity. As a reminder, the inhibition is the drop in the measured response relative to a control, in per cent. A low value points to little suppression. For `COc1ccc(CN2CC=C(c3c[nH]c4ccc(OC)cc34)CC2)cc1`, the Ki in data set [1] came to 134 nM; in data set [3] it was 148 nM. Moreover, the inhibition in data set [2] is 48%.

Consider `CCOc1ccc2[nH]cc(C3=CCN(Cc4cccs4)CC3)c2c1`, for which the values for the Ki in [1] and in [3] were 139 nM and 166 nM, respectively. The molecule also came in with an inhibition in data set [2] of 0%.

In general, Emax refers to the greatest response seen or fitted, relative to the assay's reference. In the case of `NCCc1c[nH]c2ccc(C(N)=O)cc12`, in [4], the maximum response (Emax) is 95%.

For the molecule `CCOc1ccc2[nH]cc(C3=CCN(Cc4ccc(OC)cc4)CC3)c2c1`, the Ki stood at 194 nM in [1] and 132 nM in [3]. In data set [2], this molecule displayed an inhibition of 38%.

Turning to `COc1cccc(CN2CC=C(c3c[nH]c4ccc(OC(C)C)cc34)CC2)c1`, the values for the inhibition constant (Ki) in data set [1] and in [3] were 290 nM and 299 nM, respectively. In data set [2], the inhibition came to 43%.

With `COc1cccc(CN2CC=C(c3c[nH]c4ccc(OC)cc34)CC2)c1`, the Ki in data set [1] was found to be 135 nM; in data set [3], 112 nM. Also, in [2], the inhibition is 24%.

On to `COc1ccc2[nH]cc(C3=CCN(Cc4cc(=O)[nH]c5ccccc45)CC3)c2c1`, for which the Ki in [5] is 58 nM; in data set [6], 125 nM; in [7], 614 nM; in data set [8], 148 nM; in data set [9], 358 nM.

As to `COc1ccc(CN2CC=C(c3c[nH]c4ccccc34)CC2)cc1`, the Ki in data set [1] was 243 nM; in data set [3], 87.3 nM. This molecule yielded an inhibition in data set [2] of 52%.

`COc1ccc(CN2CC=C(c3c[nH]c4ccc(OC(C)C)cc34)CC2)cc1`: the values for the inhibition constant Ki in [1] and in data set [3] were 378 nM and 165 nM, respectively. The molecule also returned an inhibition in data set [2] of 36%.

As a reminder, the Kb is the equilibrium dissociation constant of an antagonist, usually derived from a functional assay. What is called pKb is the negative decadic logarithm of the Kb, by convention in mol/L. By IC50 is commonly meant the midpoint of a concentration-inhibition curve. Higher therefore signals weaker potency in that assay. As for `COc1cccc(CN2CC=C(c3c[nH]c4ccccc34)CC2)c1`, in data set [10], the outcome was inactive. Also, the Ki was 194 nM in data set [11], 243 nM in [1] and 26.9 nM in [3]. Also, the Activity result in data set [12] and in [14] was “Dose-dependent effect” in each case. Besides, the Selectivity ratio in [13] is 200. In addition, the Emax in data set [4] was found to be 76%. For the same molecule, the antagonist equilibrium constant (Kb) came out at 4.95 nM in data set [14] and 803 nM in [16]. Moreover, in data set [14], the negative-log Kb (pKb) is 8.31. Further, the 50% inhibitory concentration (IC50) in data set [15] came to 7980 nM.

`CCOc1ccc2[nH]cc(C3=CCN(Cc4ccccc4)CC3)c2c1`: the Ki in [11] was found to be 2100 nM; in data set [1] it was 220 nM.

Turning to `COc1ccc2[nH]cc(C3=CCN(Cc4ccco4)CC3)c2c1`, the Ki came out at 195 nM in data set [1] and 142 nM in data set [3]. For the same molecule, the inhibition in [2] worked out at 15%.

In the case of `CC(C)Oc1ccc2[nH]cc(C3=CCN(Cc4ccccc4)CC3)c2c1`, the Ki in [1] worked out at 203 nM; in data set [3] it was 321 nM. The molecule further gave an inhibition in data set [2] of 32%.

Regarding `CCOc1ccc2[nH]cc(C3=CCN(Cc4ccco4)CC3)c2c1`, in [1], the inhibitory constant (Ki) turned out to be 486 nM. The inhibition was found to be 62% in data set [17] and 47% in [2].

`C1=C(c2c[nH]c3ccccc23)CCN(Cc2cccs2)C1`: the result in data set [10] was inactive. The Ki in data set [11] worked out at 171 nM; in data set [1] it was 305 nM; in data set [3] it was 71.9 nM. Besides, the Activity entry was “Dose-dependent effect” in [12], “Dose-dependent effect” in data set [14] and “Non-Toxic” in data set [22]. The outcome in [18], in data set [19], in data set [20] and in data set [21] was Active. In addition, the Selectivity ratio in data set [13] worked out at 50. Also, the maximum response (Emax) in data set [4] is 67%. Further, the Kb in data set [14] was 5.06 nM; in data set [16], 238 nM. In [14], the pKb came out at 8.3. In [15], the concentration for half-maximal inhibition (IC50) came to 2410 nM.

Turning to `CC(C)Oc1ccc2[nH]cc(C3=CCN(Cc4cccs4)CC3)c2c1`, the inhibition constant (Ki) in [1] was 214 nM; in data set [3] it was 465 nM. This molecule had an inhibition in data set [2] of 14%.

For the molecule `C1=C(c2c[nH]c3ccccc23)CCN(Cc2ccco2)C1`, the inhibitory constant (Ki) stood at 173 nM in data set [11], 752 nM in [1] and 257 nM in data set [3].

For `COc1ccc2[nH]cc(C3=CCN(Cc4ccccc4)CC3)c2c1`, the Ki is 139 nM in [1] and 62.7 nM in data set [3]. This molecule returned an inhibition in data set [2] of 41%.

Regarding `C1=C(c2c[nH]c3ccccc23)CCN(Cc2ccccc2)C1`, the result in data set [10] was inactive. The Ki in [11] amounted to 125 nM; in data set [1], 354 nM; in [3] it was 25.8 nM. For the same molecule, the Activity entry in data set [12] and in [14] was “Dose-dependent effect” in each case. Moreover, in data set [13], the Selectivity ratio was 80. The Emax in [4] is 89%. The Kb is 3.51 nM in data set [14] and 279 nM in [16]. Also, in data set [14], the pKb was determined as 8.45. Besides, the IC50 in data set [15] worked out at 2620 nM.

As for `CC(C)Oc1ccc2[nH]cc(C3=CCN(Cc4ccco4)CC3)c2c1`, the inhibitory constant (Ki) in [1] was found to be 431 nM. Also, the inhibition amounted to 51% in [17] and 5% in data set [2].

As for `CCOc1ccc2[nH]cc(C3=CCN(Cc4cccc(OC)c4)CC3)c2c1`, the figures for the Ki in data set [1] and in data set [3] were 160 nM and 108 nM, respectively. In data set [2], the inhibition is 3%.

Take `COc1ccc2[nH]cc(C3=CCN(Cc4cccs4)CC3)c2c1`: the inhibition constant (Ki) turned out to be 1890 nM in [11], 157 nM in data set [1] and 141 nM in data set [3].

Source of the values: ChEMBL document CHEMBL4364325, “Synthesis, pharmacological and structural studies of 5-substituted-3-(1-arylmethyl-1,2,3,6-tetrahydropyridin-4-yl)-1H-indoles as multi-target ligands of aminergic GPCRs” (Eur J Med Chem, 2019).
